Results as given in patent US12391648B2, “Pyridyloxy thioester derivative and preparation method therefor, herbicidal composition, and application” (Qingdao Kingagroot Chemical Compound Co., Ltd., priority 2018, dated 2025).

Columns and labels:
Format in all cases: in vivo
[1] = tested on: Indica rice; assay: Post-emergence test experiment (Table 4), crop safety; settings: after 3 weeks
From the text: (§1) The activity level standard of harmful plants destruction (i. e. growth inhibition rate) is as follows: • Level 5: the growth inhibition rate is greater than 85%; • Level 4: the growth inhibition rate is equal to or greater than 60% and less than 85%; • Level 3: the growth inhibition rate is equal to or greater than 40% and less than 60%; • Level 2: the growth inhibition rate is equal to or greater than 20% and less than 40%; • Level 1: the growth inhibition rate is equal to or greater than 5% and less than 20%; • Level 0: the growth inhibition rate is less than 5%;
(§2) The above described growth inhibition rate is fresh weight inhibition rate.
(§3) Post-emergence test experiment: Monocotyledonous and dicotyledonous weed seeds and main crop seeds (i. e. wheat, corn, rice, soybean, cotton, oilseed, millet and sorghum.) were put into a plastic pot loaded with soil. Then covered with 0.5-2 cm soil, the seeds were allowed to grow in good greenhouse environment. The test plants were treated at 2-3 leaf stage 2 weeks after sowing. The test compounds of the invention were dissolved with acetone respectively, then added with tween-80, and using 1.5 liters per hectare of an emulsible concentrate of methyl oleate as a synergist, and diluted by certain amount of water to certain concentration. The solution was sprayed to the plants with a sprayer. Then the plants were cultured for 3 weeks in the greenhouse, and the experiment result of weed controlling effect after 3 weeks was listed in tables 3-4.
(§4) […] Echinochloa crusgalli and Cyperus iria were collected from Ningxia Hui Autonomous Region of China, which had evolved resistance to ALS inhibiting herbicides. • Control compound A:

[2] = tested on: Japonica rice; assay: as above; settings: after 3 weeks
From the text: as §1, §2, §3, §4

[3] = tested on: ALS resistant Cyperus iria; assay: Post-emergence test experiment (Table 4), weed control; settings: after 3 weeks
From the text: as §1, §2, §3, §4

[4] = tested on: ALS resistant Echinochloa crusgalli; assay: as above; settings: after 3 weeks
From the text: as §1, §2, §3, §4

[5] = tested on: Setaria viridis; assay: Post-emergence test experiment (Table 3, 1000 g/ha); settings: post-emergence spray, after 3 weeks, fresh weight inhibition
In short: (§5)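 Weed seeds sown in soil-filled pots in greenhouse, sprayed at 2-3 leaf stage (2 weeks after sowing) with compound in acetone/tween-80 plus methyl oleate emulsible concentrate (1.5 L/ha) diluted in water. Fresh-weight growth inhibition scored after 3 weeks on 0-5 scale (5: >85%, 0: <5%).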

[6] = tested on: Digitaria sanguinalis; assay: as above; settings: post-emergence spray, after 3 weeks, fresh weight inhibition
In short: as §5

[7] = tested on: Leptochloa chinensis; assay: as above; settings: post-emergence spray, after 3 weeks, fresh weight inhibition
In short: as §5

[8] = tested on: Abutilon theophrasti; assay: as above; settings: post-emergence spray, after 3 weeks, fresh weight inhibition
In short: as §5

[9] = tested on: Galium spurium; assay: as above; settings: post-emergence spray, after 3 weeks, fresh weight inhibition
In short: as §5

[10] = tested on: Monochoria vaginalis; assay: as above; settings: post-emergence spray, after 3 weeks, fresh weight inhibition
In short: as §5

[11] = tested on: rice (japonica rice); assay: Transplanted rice safety evaluation; settings: 1000 g/ha, transplanted 3-leaf stage japonica rice, treated 5 days after transplantation, 21 days after treatment
From the text: as §1
(§6) Transplanted rice safety evaluation and weed control effect evaluation in rice field:
In addition, the rice field soil that loaded into the 1/1,000,000 ha pot was leveled to keep water storage at 3-4 cm depth. The 3-leaf stage rice (japonica rice) was transplanted at 3 cm of transplanting depth the next day. The compound of the present invention was treated by the same way after 5 days of transplantation.
(§7) The fertility condition of Monochoria vaginalis 14 days and rice 21 days after the treatment of the compound of the invention with the naked eye.

[12] = tested on: Monochoria vaginalis; assay: Weed control effect evaluation in rice field; settings: paddy water application at 0.5 leaf stage, 14 days after treatment, weeds resistant to pyrazosulfuron-ethyl and penoxsulam
From the text: as §1, §6
Rice field soil was loaded into a 1/1,000,000 ha pot. The seeds of Monochoria vaginalis were sowed and gently covered with soil, then left to stand still in greenhouse in the state of 0.5-1 cm of water storage. It was kept at 3-4 cm of water storage thereafter. The weeds were treated by dripping the WP or SC water diluents prepared according to the common preparation method of the compounds of the present invention with pipette homogeneously to achieve specified effective amount when Monochoria vaginalis reached 0. 5 leaf stage.
as §7
Note: The seeds of Monochoria vaginalis were collected from Heilongjing Province of China.

[13] = 600 g/ha active ingredient, plus water 450 kg/ha

| SMILES | Indica rice, activity level (growth inhibition rate) ([1]; 100 g/ha) | Japonica rice, activity level (growth inhibition rate) ([2]; 100 g/ha) | ALS resistant Cyperus iria, activity level (growth inhibition rate) ([3]; 100 g/ha) | ALS resistant Echinochloa crusgalli, activity level (growth inhibition rate) ([4]; 100 g/ha) | Indica rice, activity level (growth inhibition rate) [1, 13] | Japonica rice, activity level (growth inhibition rate) [2, 13] | Activity level (growth inhibition rate) Setaria viridis [5] | Activity level (growth inhibition rate) Digitaria sanguinalis [6] | Activity level (growth inhibition rate) Leptochloa chinensis [7] | Activity level (growth inhibition rate) Abutilon theophrasti [8] | Activity level (growth inhibition rate) Galium spurium [9] | Activity level (growth inhibition rate) Monochoria Vaginalis [10] | ALS resistant Cyperus iria, activity level (growth inhibition rate) [3, 13] | ALS resistant Echinochloa crusgalli, activity level (growth inhibition rate) [4, 13] | Rice, activity standard level 0-5 (safety) [11] | Monochoria Vaginalis, activity standard level 0-5 ([12]; 1000 g/ha) | Monochoria Vaginalis, activity standard level 0-5 ([12]; 50 g/ha) |
| --- | --- | --- | --- | --- | --- | --- | --- | --- | --- | --- | --- | --- | --- | --- | --- | --- | --- |
| COc1cc(OC)nc(Oc2cccc(Oc3nc(OC)cc(OC)n3)c2C(=O)O)n1 [Bispyribac-sodium, reference compound] | 2 (Level 2: the growth inhibition rate is equal to or greater than 20% and less than 40%) | 4 (Level 4: the growth inhibition rate is equal to or greater than 60% and less than 85%) | 1 (Level 1: the growth inhibition rate is equal to or greater than 5% and less than 20%) | 1 (Level 1: the growth inhibition rate is equal to or greater than 5% and less than 20%) |  |  |  |  |  |  |  |  |  |  |  |  |  |
| CSC(=O)C(C)Oc1ncc(Cl)c(N)c1Cl (centres unmarked) [Compound 3] |  |  |  |  | 0 (Level 0: the growth inhibition rate is less than 5%) | 0 (Level 0: the growth inhibition rate is less than 5%) | 5 (Level 5: the growth inhibition rate is greater than 85%) | 5 (Level 5: the growth inhibition rate is greater than 85%) | 5 (Level 5: the growth inhibition rate is greater than 85%) | 5 (Level 5: the growth inhibition rate is greater than 85%) | 5 (Level 5: the growth inhibition rate is greater than 85%) | 5 (Level 5: the growth inhibition rate is greater than 85%) | 5 (Level 5: the growth inhibition rate is greater than 85%) | 5 (Level 5: the growth inhibition rate is greater than 85%) | 0 (Level 0: the growth inhibition rate is less than 5%) | 5 (Level 5: the growth inhibition rate is greater than 85%) |  |
| CSC(=O)C(C)Oc1nc(F)c(Cl)c(N)c1Cl (centres unmarked) [Compound 4] |  |  |  |  | 0 (Level 0: the growth inhibition rate is less than 5%) | 0 (Level 0: the growth inhibition rate is less than 5%) | 5 (Level 5: the growth inhibition rate is greater than 85%) | 5 (Level 5: the growth inhibition rate is greater than 85%) | 5 (Level 5: the growth inhibition rate is greater than 85%) | 5 (Level 5: the growth inhibition rate is greater than 85%) | 5 (Level 5: the growth inhibition rate is greater than 85%) | 5 (Level 5: the growth inhibition rate is greater than 85%) | 5 (Level 5: the growth inhibition rate is greater than 85%) | 5 (Level 5: the growth inhibition rate is greater than 85%) | 0 (Level 0: the growth inhibition rate is less than 5%) | 5 (Level 5: the growth inhibition rate is greater than 85%) |  |
| CSC(=O)C(C)Oc1nc(F)c(C)c(N)c1C (centres unmarked) [Compound 7] |  |  |  |  | 0 (Level 0: the growth inhibition rate is less than 5%) | 0 (Level 0: the growth inhibition rate is less than 5%) | 5 (Level 5: the growth inhibition rate is greater than 85%) | 5 (Level 5: the growth inhibition rate is greater than 85%) | 5 (Level 5: the growth inhibition rate is greater than 85%) | 5 (Level 5: the growth inhibition rate is greater than 85%) | 5 (Level 5: the growth inhibition rate is greater than 85%) | 5 (Level 5: the growth inhibition rate is greater than 85%) | 5 (Level 5: the growth inhibition rate is greater than 85%) | 5 (Level 5: the growth inhibition rate is greater than 85%) | 0 (Level 0: the growth inhibition rate is less than 5%) | 5 (Level 5: the growth inhibition rate is greater than 85%) |  |
| CC(Oc1nc(F)c(Cl)c(N)c1Cl)C(=O)SC[N+](=O)[O-] (centres unmarked) [Compound 156] |  |  |  |  |  |  | 5 (Level 5: the growth inhibition rate is greater than 85%) | 5 (Level 5: the growth inhibition rate is greater than 85%) | 5 (Level 5: the growth inhibition rate is greater than 85%) | 5 (Level 5: the growth inhibition rate is greater than 85%) | 5 (Level 5: the growth inhibition rate is greater than 85%) | 5 (Level 5: the growth inhibition rate is greater than 85%) |  |  |  |  |  |
| CC(Oc1nc(F)c(Cl)c(N)c1Cl)C(=O)SCC(F)F (centres unmarked) [Compound 157] |  |  |  |  |  |  | 5 (Level 5: the growth inhibition rate is greater than 85%) | 5 (Level 5: the growth inhibition rate is greater than 85%) | 5 (Level 5: the growth inhibition rate is greater than 85%) | 5 (Level 5: the growth inhibition rate is greater than 85%) | 5 (Level 5: the growth inhibition rate is greater than 85%) | 5 (Level 5: the growth inhibition rate is greater than 85%) |  |  |  |  |  |
| CC(Oc1nc(F)c(Cl)c(N)c1Cl)C(=O)SCCF (centres unmarked) [Compound 158] |  |  |  |  |  |  | 5 (Level 5: the growth inhibition rate is greater than 85%) | 5 (Level 5: the growth inhibition rate is greater than 85%) | 5 (Level 5: the growth inhibition rate is greater than 85%) | 5 (Level 5: the growth inhibition rate is greater than 85%) | 5 (Level 5: the growth inhibition rate is greater than 85%) | 5 (Level 5: the growth inhibition rate is greater than 85%) |  |  |  |  |  |
| CSC(=O)C(C)Oc1nc(F)c(Cl)c(NCc2ccc(C(F)(F)F)o2)c1Cl (centres unmarked) [Compound 161] |  |  |  |  |  |  | 5 (Level 5: the growth inhibition rate is greater than 85%) | 5 (Level 5: the growth inhibition rate is greater than 85%) | 5 (Level 5: the growth inhibition rate is greater than 85%) | 5 (Level 5: the growth inhibition rate is greater than 85%) | 5 (Level 5: the growth inhibition rate is greater than 85%) | 5 (Level 5: the growth inhibition rate is greater than 85%) |  |  |  |  |  |
| COc1cnc(OC)n2nc(NS(=O)(=O)c3c(OCC(F)F)cccc3C(F)(F)F)nc12 [Penoxsulam, reference compound] |  |  |  |  |  |  |  |  |  |  |  |  |  |  |  |  | 1 (Level 1: the growth inhibition rate is equal to or greater than 5% and less than 20%) |
